Experimental data as given in patent US20210045385A1, “PYRIDAZINONE-SUBSTITUTED KETOXIMES AS HERBICIDES” (FMC Corporation, priority 2018, published 2021).

Experiments:
Format in all cases: in vivo
[1] = tested on: blackgrass (Alopecurus myosuroides); experiment: Test A postemergence, visual plant response rating; conditions: for Blackgrass plant response rating (0 to 100 scale): 500 g ai/ha, postemergence, 0 is no effect, 100 is complete control; for Blackgrass plant response rating: Postemergence, 125 g ai/ha, 0 to 100 scale (0 no effect, 100 complete control)
How it was run: (§1)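 Compared with untreated controls, treated plants received a visual injury score on a 0–100 scale around 10 days after application. The compound, in a non-phytotoxic solvent with surfactant, was given as a preemergence soil spray or postemergence at the one- to two-leaf stage.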

[2] = tested on: pigweed (Amaranthus retroflexus); experiment: Test A postemergence, visual plant response rating; conditions: for Pigweed plant response rating (0 to 100 scale): 500 g ai/ha, postemergence, 0 is no effect, 100 is complete control; for Pigweed plant response rating: Postemergence, 125 g ai/ha, 0 to 100 scale (0 no effect, 100 complete control)
How it was run: as §1

kochia (Kochia scoparia) [3] = experiment: Test A postemergence, visual plant response rating; conditions: for Kochia plant response rating (0 to 100 scale): 500 g ai/ha, postemergence, 0 is no effect, 100 is complete control; for Kochia plant response rating: Postemergence, 125 g ai/ha, 0 to 100 scale (0 no effect, 100 complete control)
How it was run: as §1

[4] = tested on: barnyardgrass (Echinochloa crus-galli); experiment: Test A postemergence, visual plant response rating; conditions: for Barnyardgrass plant response rating (0 to 100 scale): 500 g ai/ha, postemergence, 0 is no effect, 100 is complete control; for Barnyardgrass plant response rating: Postemergence, 125 g ai/ha, 0 to 100 scale (0 no effect, 100 complete control)
How it was run: as §1

[5] = tested on: galium (catchweed bedstraw, Galium aparine); experiment: Test A postemergence, visual plant response rating; conditions: for Galium plant response rating (0 to 100 scale): 500 g ai/ha, postemergence, 0 is no effect, 100 is complete control; for Galium plant response rating: Postemergence, 125 g ai/ha, 0 to 100 scale (0 no effect, 100 complete control)
How it was run: as §1

corn (Zea mays) = experiment: Test A postemergence, visual plant response rating; conditions: for Corn plant response rating (0 to 100 scale): 500 g ai/ha, postemergence, 0 is no effect, 100 is complete control; for Corn plant response rating: Postemergence, 125 g ai/ha, 0 to 100 scale (0 no effect, 100 complete control)
How it was run: as §1

[6] = tested on: ragweed (common ragweed, Ambrosia elatior); experiment: Test A postemergence, visual plant response rating; conditions: for Ragweed plant response rating (0 to 100 scale): 500 g ai/ha, postemergence, 0 is no effect, 100 is complete control; for Ragweed plant response rating: Postemergence, 125 g ai/ha, 0 to 100 scale (0 no effect, 100 complete control)
How it was run: as §1

[7] = tested on: foxtail, green (green foxtail, Setaria viridis); experiment: Test A postemergence, visual plant response rating; conditions: for Foxtail, Green plant response rating (0 to 100 scale): 500 g ai/ha, postemergence, 0 is no effect, 100 is complete control; for Foxtail, Green plant response rating: Postemergence, 125 g ai/ha, 0 to 100 scale (0 no effect, 100 complete control)
How it was run: as §1

[8] = tested on: Italian ryegrass (Lolium multiflorum); experiment: Test A postemergence, visual plant response rating; conditions: for Ryegrass, Italian plant response rating (0 to 100 scale): 500 g ai/ha, postemergence, 0 is no effect, 100 is complete control; for Ryegrass, Italian plant response rating: Postemergence, 125 g ai/ha, 0 to 100 scale (0 no effect, 100 complete control)
How it was run: as §1

[9] = tested on: wheat (Triticum aestivum); experiment: Test A postemergence, visual plant response rating; conditions: for Wheat plant response rating (0 to 100 scale): 500 g ai/ha, postemergence, 0 is no effect, 100 is complete control; for Wheat plant response rating: Postemergence, 125 g ai/ha, 0 to 100 scale (0 no effect, 100 complete control)
How it was run: as §1

rice (Oryza sativa) = experiment: Test B flooded paddy test, visual plant response rating; conditions: 250 g ai/ha, Flood, applied to paddy water, 2-leaf stage, evaluated after 13 to 15 days
How it was run: (§2)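 Compounds added straight into paddy water of pots flooded to 3 cm, with 2-leaf-stage plants of the four species; water level held throughout.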

[10] = tested on: barnyardgrass (Echinochloa crus-galli); experiment: as above; conditions: 250 g ai/ha, Flood, applied to paddy water, 2-leaf stage, evaluated after 13 to 15 days
How it was run: as §2

[11] = tested on: ducksalad (Heteranhera limosa); experiment: as above; conditions: 250 g ai/ha, Flood, applied to paddy water, 2-leaf stage, evaluated after 13 to 15 days
How it was run: as §2

[12] = tested on: sedge, umbrella (small-flower umbrella sedge, Cyperus difformis); experiment: as above; conditions: 250 g ai/ha, Flood, applied to paddy water, 2-leaf stage, evaluated after 13 to 15 days
How it was run: as §2

[13] = tested on: pigweed (Amaranthus retroflexus); experiment: Test A preemergence, visual plant response rating; conditions: for Pigweed plant response rating (0 to 100 scale): approx. 10 days
How it was run: as §1

kochia (Kochia scoparia) [14] = experiment: Test A preemergence, visual plant response rating; conditions: for Kochia plant response rating (0 to 100 scale): approx. 10 days
How it was run: as §1

[15] = tested on: barnyardgrass (Echinochloa crus-galli); experiment: Test A preemergence, visual plant response rating; conditions: for Barnyardgrass plant response rating (0 to 100 scale): approx. 10 days
How it was run: as §1

[16] = tested on: ragweed (common ragweed, Ambrosia elatior); experiment: Test A preemergence, visual plant response rating; conditions: for Ragweed plant response rating (0 to 100 scale): approx. 10 days
How it was run: as §1

[17] = tested on: foxtail, green (green foxtail, Setaria viridis); experiment: Test A preemergence, visual plant response rating; conditions: for Foxtail, Green plant response rating (0 to 100 scale): approx. 10 days
How it was run: as §1

[18] = tested on: Italian ryegrass (Lolium multiflorum); experiment: Test A preemergence, visual plant response rating; conditions: for Ryegrass, Italian plant response rating (0 to 100 scale): approx. 10 days
How it was run: as §1

[19] = 125 g ai/ha, preemergence, 0 to 100 scale, 0 no effect, 100 complete control

## CCO/N=C(/c1ccccc1C)c1c(O)c(C)nn(C)c1=O [Compound 15]
[1]
  Blackgrass plant response rating (0 to 100 scale): 60
  Blackgrass plant response rating: 30
[2]
  Pigweed plant response rating (0 to 100 scale): 30
  Pigweed plant response rating: 20
Kochia (Kochia scoparia) [3]
  Kochia plant response rating (0 to 100 scale): 20
  Kochia plant response rating: 0
[4]
  Barnyardgrass plant response rating (0 to 100 scale): 30
  Barnyardgrass plant response rating: 10
[5]
  Galium plant response rating (0 to 100 scale): 90
  Galium plant response rating: 80
Corn (Zea mays)
  Corn plant response rating (0 to 100 scale): 10
  Corn plant response rating: 0
[6]
  Ragweed plant response rating (0 to 100 scale): 80
  Ragweed plant response rating: 60
[7]
  Foxtail, Green plant response rating (0 to 100 scale): 30
  Foxtail, Green plant response rating: 10
[8]
  Ryegrass, Italian plant response rating (0 to 100 scale): 80
  Ryegrass, Italian plant response rating: 60
[9]
  Wheat plant response rating (0 to 100 scale): 0
  Wheat plant response rating: 0
Rice (Oryza sativa)
  Plant response rating, Rice (0 to 100 scale, 0 is no effect, 100 is complete control): 0
[10]
  Plant response rating, Barnyardgrass (0 to 100 scale, 0 is no effect, 100 is complete control): 0
[11]
  Plant response rating, Ducksalad (0 to 100 scale, 0 is no effect, 100 is complete control): 0
[12]
  Plant response rating, Sedge, Umbrella (0 to 100 scale, 0 is no effect, 100 is complete control): 0
[13]; 125 g ai/ha Preemergence
  Pigweed plant response rating (0 to 100 scale): 60
[13]; 500 g ai/ha Preemergence
  Pigweed plant response rating (0 to 100 scale): 70
Kochia (Kochia scoparia) [14]; 125 g ai/ha Preemergence
  Kochia plant response rating (0 to 100 scale): 0
Kochia (Kochia scoparia) [14]; 500 g ai/ha Preemergence
  Kochia plant response rating (0 to 100 scale): 10
[15]; 125 g ai/ha Preemergence
  Barnyardgrass plant response rating (0 to 100 scale): 30
[15]; 500 g ai/ha Preemergence
  Barnyardgrass plant response rating (0 to 100 scale): 80
[16]; 125 g ai/ha Preemergence
  Ragweed plant response rating (0 to 100 scale): 30
[16]; 500 g ai/ha Preemergence
  Ragweed plant response rating (0 to 100 scale): 90
[17]; 125 g ai/ha Preemergence
  Foxtail, Green plant response rating (0 to 100 scale): 0
[17]; 500 g ai/ha Preemergence
  Foxtail, Green plant response rating (0 to 100 scale): 60
[18]; 125 g ai/ha Preemergence
  Ryegrass, Italian plant response rating (0 to 100 scale): 70
[18]; 500 g ai/ha Preemergence
  Ryegrass, Italian plant response rating (0 to 100 scale): 80

## CO/N=C(/c1ccccc1Cl)c1c(O)c(C)nn(C)c1=O [Compound 63]
[1]
  Blackgrass plant response rating (0 to 100 scale): 80
  Blackgrass plant response rating: 10
[2]
  Pigweed plant response rating (0 to 100 scale): 50
  Pigweed plant response rating: 30
Kochia (Kochia scoparia) [3]
  Kochia plant response rating (0 to 100 scale): 30
  Kochia plant response rating: 10
[4]
  Barnyardgrass plant response rating (0 to 100 scale): 0
  Barnyardgrass plant response rating: 0
[5]
  Galium plant response rating (0 to 100 scale): 80
  Galium plant response rating: 60
Corn (Zea mays)
  Corn plant response rating (0 to 100 scale): 0
  Corn plant response rating: 0
[6]
  Ragweed plant response rating (0 to 100 scale): 50
  Ragweed plant response rating: 30
[7]
  Foxtail, Green plant response rating (0 to 100 scale): 10
  Foxtail, Green plant response rating: 0
[8]
  Ryegrass, Italian plant response rating (0 to 100 scale): 70
  Ryegrass, Italian plant response rating: 30
[9]
  Wheat plant response rating (0 to 100 scale): 20
  Wheat plant response rating: 0
Rice (Oryza sativa)
  Plant response rating, Rice (0 to 100 scale, 0 is no effect, 100 is complete control): 0
[10]
  Plant response rating, Barnyardgrass (0 to 100 scale, 0 is no effect, 100 is complete control): 0
[11]
  Plant response rating, Ducksalad (0 to 100 scale, 0 is no effect, 100 is complete control): 0
[12]
  Plant response rating, Sedge, Umbrella (0 to 100 scale, 0 is no effect, 100 is complete control): 0
[13]; [19]
  Pigweed plant response rating: 0
[13]; 500 g ai/ha Preemergence
  Pigweed plant response rating (0 to 100 scale): 80
Kochia (Kochia scoparia) [14]; [19]
  Kochia plant response rating: 0
Kochia (Kochia scoparia) [14]; 500 g ai/ha Preemergence
  Kochia plant response rating (0 to 100 scale): 20
[15]; [19]
  Barnyardgrass plant response rating: 0
[15]; 500 g ai/ha Preemergence
  Barnyardgrass plant response rating (0 to 100 scale): 0
[16]; [19]
  Ragweed plant response rating: 30
[16]; 500 g ai/ha Preemergence
  Ragweed plant response rating (0 to 100 scale): 70
[17]; [19]
  Foxtail, Green plant response rating: 0
[17]; 500 g ai/ha Preemergence
  Foxtail, Green plant response rating (0 to 100 scale): 20
[18]; [19]
  Ryegrass, Italian plant response rating: 10
[18]; 500 g ai/ha Preemergence
  Ryegrass, Italian plant response rating (0 to 100 scale): 50
